Experimental data from patent US7022694B2, “Indoles and indolines having 5-HT activity” (Pharmacia & UpJohn Company, priority 2001, dated 2006).

| melting point [°C] | SMILES |
| --- | --- |
| 150 to 153 | CN1CCc2ccc3cc[nH]c3c2CC1 |
| 129 to 132 | c1cnc2c(OCCn3ccc4ccc5c(c43)CCNCC5)cccc2c1 [Example 6, 1-[2-(8-Quinolinyloxy)ethyl]-1,6,7,8,9,10-hexahydroazepino[4,5-g]indole] |
